Measurements as given in patent KR20050073110A, “간 x 수용체의 항진제” (주식회사 엘지생명과학, priority 2004, dated 2005).

Key:
LXRα (pGAL-hLXRα-LBD) = target: T1, LXRα (pGAL-hLXRα-LBD) (Homo sapiens, UniProt Q13133); test: Transient transfection assay (luciferase reporter) in HEK293 / NIH3T3 cells; type: cell-based; details: increasing amounts of compound, without RXRα expression plasmid (Fig. 1)
T1 construct: 수용체 발현 벡터(pGAL-hLXRα-LBD); expressed in transfected cells; host or cells: HEK293 or NIH3T3 cells
T1 sequence (Q13133 209-447 limits assumed): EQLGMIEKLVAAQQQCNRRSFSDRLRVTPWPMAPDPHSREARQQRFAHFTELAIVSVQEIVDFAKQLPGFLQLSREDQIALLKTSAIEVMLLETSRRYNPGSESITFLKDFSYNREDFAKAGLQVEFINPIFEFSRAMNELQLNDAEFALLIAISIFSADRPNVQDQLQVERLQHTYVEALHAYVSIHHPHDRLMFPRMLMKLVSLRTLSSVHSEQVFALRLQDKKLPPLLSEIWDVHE

[1] = target: T2, LXRα ligand-binding domain [LXRα 리간드-결합 도메인] (GST-LXRα-LBD) (Homo sapiens, UniProt Q13133); test: Fluorescence polarization assay (rhodamine-labelled LXXLL peptide recruitment to GST-LXRα-LBD); type: biochemical; details: 10 nM rhodamine-labelled peptide, 200 nM GST-LXRα-LBD, overnight (Fig. 2)
T2 construct: LXRα 리간드-결합 도메인을 글루타치온 S-트랜스퍼라제(GST)의 C-말단에 융합시키고; made in house; host or cells: E. coli
T2 sequence (Q13133 209-447 limits assumed): T1 sequence (Q13133 209-447 limits assumed)

CYP7A = CYP7A assay in liver of orally dosed mice; type: in vivo, C57BL/6J mouse; details: C57BL/6J mice (n=6), single oral administration, liver taken after 8 h; dose not given
[2] = Plasma lipid change experiment in mice; type: in vivo, C57BL/6J mouse; details: 14 days, C57BL/6J mice (n=6), blood 6 h after last dose

luciferase activity (LXRα-mediated transcription) (LXRα (pGAL-hLXRα-LBD)) | Compound | fluorescence polarization activity (coactivator peptide recruitment) [1] | increase in CYP7A activity in liver (CYP7A) [%] | increase in plasma HDL cholesterol ([2]; 30 mg/kg oral) [%] | increase in plasma HDL cholesterol ([2]; 100 mg/kg oral) [%]
용량 의존적으로 루시퍼라제 활성이 증가하였다 | COC(=O)c1cccc(S(=O)(=O)/C(C#N)=C/c2cc(C(C)C)n(-c3ccccc3C(F)(F)F)c2C)c1 [#182, (E)-2-(3-메톡시카보닐페닐)설포닐-3-[1-(2-트리플루오로메틸페닐)-2-메틸-5-이소프로필피롤-3-일]아크릴로니트릴] | – | – | – | –
용량 의존적으로 루시퍼라제 활성이 증가하였다 | Cc1c(/C=C(\C#N)S(=O)(=O)c2ccccc2)cc(C(C)C)n1-c1ccccc1C(F)(F)F [#44, (E)-2-페닐설포닐-3-[1-(2-트리플루오로메틸페닐)-2-메틸-5-이소프로필피롤-3-일]아크릴로니트릴] | – | – | – | –

The remaining lines, values behind:

Compound | luciferase activity (LXRα-mediated transcription) (LXRα (pGAL-hLXRα-LBD)) | fluorescence polarization activity (coactivator peptide recruitment) [1] | increase in CYP7A activity in liver (CYP7A) [%] | increase in plasma HDL cholesterol ([2]; 30 mg/kg oral) [%] | increase in plasma HDL cholesterol ([2]; 100 mg/kg oral) [%]
O=S(=O)(c1ccccc1)N(CC(F)(F)F)c1ccc(C(O)(C(F)(F)F)C(F)(F)F)cc1 [T0901317, reference compound] | 용량 의존적으로 루시퍼라제 활성이 증가하였다 | 가장 높은 활성을 나타내었고 | – | – | –
CC(C)CC[C@@H](O)[C@@H](C)[C@H]1CC[C@H]2[C@@H]3CC=C4C[C@@H](O)CC[C@]4(C)[C@H]3CC[C@]12C [22(R)-하이드록시콜레스테롤, reference compound] | 용량 의존적으로 루시퍼라제 활성이 증가하였다 | 형광의 증가를 나타내었다 | – | – | –
CC(C)c1cc(/C=C(\C#N)S(=O)(=O)c2ccccc2)cn1-c1ccccc1C(F)(F)F [#189, (E)-2-페닐설포닐-3-[1-(2-트리플루오로메틸페닐)-5-이소프로필피롤-3-일]아크릴로니트릴] | – | – | 91 | 18 | 41
